Source: paper PMC10815619, “Leveraging SARS-CoV-2 Main Protease (M^pro) for COVID-19 Mitigation with Selenium-Based Inhibitors” (International Journal of Molecular Sciences, 2024)
Read-outs that look alike come from different tables or passages of the source.

Biological target: T1, SARS-CoV-2 M^pro (Severe acute respiratory syndrome coronavirus 2, UniProt P0DTD1)
T1 construct: covers ORF1ab polyprotein residues 3264–3569; N-terminal leader ending in the Mpro autocleavage site (SAVLQ*SGFRK) (N, cleaved yes); made in house; host or cells: Escherichia coli BL21 (DE3), pET100D-Topo vector
Assay: Fluorescence-based cleavage assay with AFC-peptide substrate, IC50 against M^pro
Type: biochemical
Protocol: For the determination of half-maximal inhibitory concentrations (IC50) of inhibitors against M^pro, an AFC-Peptide substrate (SAE0180, Merck) was used for a fluorescence-based cleavage assay [66]. The assay was performed in half area 96-well, black, flat-bottomed microtiter plates (Corstar, Corning, Glendale, CA, USA) with a final volume of 125 μL. M^pro (final concentrations of 5–50 nM) was pre-incubated for 1 h at 25 °C with compounds at different concentrations in the assay buffer (PBS, pH 7.5). […] The readings for the different concentrations of the inhibitor compounds incubated with the substrate without M^Pro were measured as a blank. […] The results were plotted as dose inhibition curves using nonlinear regression with a variable slope to determine the IC50 values of inhibitor compounds using GraphPad Prism 9.0.

Row | SMILES | IC50 | IC50 (recombinant M^pro 5-50 nM, 1 h pre-incubation at 25 °C, AFC-peptide substrate 12 μM, PBS pH 7.5, mean ± SD (n = 3), read-out: IC50 against M^pro)
1 | Cc1ccc(NC(=O)[Se]c2ccccc2)cc1 [Cmp. 3b] | 1.04 ± 0.047 µM | 
2 | Cc1cc(C)cc(NC(=O)[Se]Cc2ccc(S(N)(=O)=O)cc2)c1 [Cmp. 3c, Se-(4-Sulfamoylbenzyl) (3,5-Dimethylphenyl) Carbamoselenoate] |  | 0.704 µM
